Assay results published in ChEMBL document CHEMBL1140403, “Carbonic anhydrase inhibitors: inhibition of cytosolic/tumor-associated carbonic anhydrase isozymes I, II, and IX with benzo[b]thiophene 1,1-dioxide sulfonamides” (Bioorg Med Chem Lett, 2005).

Assays:
Carbonic anhydrase 2 = Carbonic anhydrase 2 (Homo sapiens, UniProt P00918)
Description: Inhibitory activity against human cloned Carbonic anhydrase II by the CO2 hydration method

Carbonic anhydrase 1 = Carbonic anhydrase 1 (Homo sapiens, UniProt P00915)
Description: Inhibitory activity against human cloned Carbonic anhydrase I by the CO2 hydration method

Carbonic anhydrase 9 = Carbonic anhydrase 9 (Homo sapiens, UniProt Q16790)
Description: Inhibitory activity against catalytic domain of human cloned Carbonic anhydrase IX by the CO2 hydration method

Carbonic anhydrase 1, sequence (P00915 whole entry): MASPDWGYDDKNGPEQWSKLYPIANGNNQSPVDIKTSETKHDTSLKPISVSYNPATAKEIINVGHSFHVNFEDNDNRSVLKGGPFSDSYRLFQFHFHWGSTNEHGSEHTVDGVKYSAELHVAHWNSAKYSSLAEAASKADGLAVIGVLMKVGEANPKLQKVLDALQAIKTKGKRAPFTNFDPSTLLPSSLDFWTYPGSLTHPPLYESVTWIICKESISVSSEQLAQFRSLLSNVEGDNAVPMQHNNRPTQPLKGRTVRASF

Row | Structure (SMILES) | Ki (Carbonic anhydrase 2) [nM] | Ki (Carbonic anhydrase 1) [nM] | Ki (Carbonic anhydrase 9) [nM]
1 | NS(=O)(=O)c1ccc2c(c1)S(=O)(=O)C=C2 | 7.5 | 63 | 15
2 | CCNS(=O)(=O)c1ccc2c(c1)S(=O)(=O)C=C2 | 436 | 530 | 362
3 | NS(=O)(=O)c1ccc2c(c1)S(=O)(=O)CC2 | 8.8 | 72 | 10
4 | NS(=O)(=O)c1ccc2c(c1)S(=O)(=O)CC2OCc1ccccc1 (stereo not given) | 7.9 | 138 | 2.8
5 | O=S1(=O)C=Cc2ccc(S(=O)(=O)NCC3CC3)cc21 | 475 | 493 | 76
6 | NS(=O)(=O)c1ccc2c(c1)C=CS2(=O)=O | 7.4 | 75 | 13
7 | CCCCOC1CS(=O)(=O)c2cc(S(N)(=O)=O)ccc21 (stereo not given) | 6.3 | 104 | 3.1
8 | O=S1(=O)C=Cc2ccc(S(=O)(=O)NCc3ccccc3)cc21 | > 1000 | > 1000 | > 1000
9 | COc1cccc(NS(=O)(=O)c2ccc3c(c2)C=CS3(=O)=O)c1 | > 1000 | > 1000 | > 1000
10 | CC1=CS(=O)(=O)c2cc(S(N)(=O)=O)ccc21 | 8.3 | 85 | 13
